Results taken from article PMC9146698, “Mammalian Brain Ca^2+ Channel Activity Transplanted into Xenopus laevis Oocytes” (Membranes, 2022).

System: T1, GABA receptor
T1 construct: gene Gabra1
Assay: two-electrode voltage clamp, membrane-transplanted oocytes
Format: cell-based, Mus musculus
Conditions: block of GABA-induced Cl- current; n = 5; data not shown

CN1CCc2cc3c(cc2[C@H]1[C@@H]1OC(=O)c2c1ccc1c2OCO1)OCO3 [biccuculine]
% block at 100 μM: 87 ± 2%
